Series [1] can be described thus: refractive index (Na D-line) (dimensionless); wn = mass fraction of the nth substance listed. Particulars: 293.15 K, 101 kPa, Liquid, Standard Abbe refractometry.
The conditions of series [2]: for mass density: 293.15 K, 101.33 kPa, gas displacement; for Normal melting temperature / Triple point temperature: DTA.
A short description of series [3]: refractive index (Na D-line) (dimensionless). As to conditions: 293.15 K; 101.33 kPa; Liquid; Standard Abbe refractometry.

Each structure is given as a SMILES string. ± gives the expanded uncertainty stated by the source.

What is called refractive index is a measure of how strongly the sample bends light. Turning to `O=S(=O)(O)C(F)(F)F` [methanesulfonic acid, trifluoro-] + CCCCCC[N+](CC)(CC)CC.F[P-](F)(F)(F)(F)F, in series [1] (w2 = 0), the refractive index is given as 1.3292 ± 0.005.

One may read the mass density as the mass of a sample divided by its volume. As to `CCCC[N+](CC)(CC)CC.F[B-](F)(F)F` [N,N,N-triethyl-N-butylammonium tetrafluoroborate], in series [2] (Crystal 2), the mass density worked out at 1140 ± 16 kg/m3 and the Triple point temperature came to 305.85 ± 0.5 K. For the same molecule, in series [2] (Crystal 1), the Normal melting temperature stood at 161.90 ± 0.5 °C.

Turning to `O=S(=O)(O)C(F)(F)F` [methanesulfonic acid, trifluoro-] + CCCCCC[N+](CC)(CC)CC.[F][Sb-]([F])([F])([F])([F])[F], the refractive index in series [1] (w2 = 0) was 1.3292 ± 0.005.

Consider `CCCC[N+](CC)(CC)CC.F[P-](F)(F)(F)(F)F` [N,N,N-triethyl-N-butylammonium hexafluorophosphate] + O=S(=O)(O)C(F)(F)F, for which the refractive index stood at 1.3405 ± 0.0052 in series [1] (w1 = 0.1); 1.3522 ± 0.0052 in series [1] (w1 = 0.2); 1.3632 ± 0.0051 in series [1] (w1 = 0.3); 1.3745 ± 0.0051 in series [1] (w1 = 0.4); 1.3786 ± 0.005 in series [1] (w1 = 0.5); 1.3782 ± 0.005 in series [1] (w1 = 0.6).

On to `O=S(=O)(O)C(F)(F)F` [methanesulfonic acid, trifluoro-] + CCCCCC[N+](CC)(CC)CC.F[B-](F)(F)F, for which, in series [1] (w2 = 0), the refractive index stood at 1.3292 ± 0.005.

For the molecule `CCCCCCCC[N+](CC)(CC)CC.F[B-](F)(F)F` [N,N,N-triethyl-N-octylammonium tetrafluoroborate], in series [2] (Crystal), the mass density came out at 1065 ± 16 kg/m3 and the Normal melting temperature worked out at 101.40 ± 0.5 °C.

On to `CCCCCC[N+](CC)(CC)CC.F[B-](F)(F)F` [N,N,N-triethyl-N-hexylammonium tetrafluoroborate], for which, in series [2] (Crystal), the mass density is recorded as 1094 ± 16 kg/m3 and the Normal melting temperature came out at 88.20 ± 0.5 °C.

For the molecule `CC[N+](CC)(CC)CC.F[B-](F)(F)F` [tetraethylammonium tetrafluoroborate], in series [2] (Crystal), the mass density was 1220 ± 16 kg/m3 and the Normal melting temperature amounted to 71.40 ± 0.5 °C.

As to `CCCC[N+](CC)(CC)CC.F[P-](F)(F)(F)(F)F` [N,N,N-triethyl-N-butylammonium hexafluorophosphate], in series [2] (Crystal), the mass density is on record as 1366 ± 16 kg/m3. Further, in series [2] (Crystal 1), the Normal melting temperature is 178.90 ± 0.5 °C.

As to `O=S(=O)(O)C(F)(F)F` [methanesulfonic acid, trifluoro-] + CCCCCCCC[N+](CC)(CC)CC.F[B-](F)(F)F, in series [1] (w2 = 0), the refractive index was determined as 1.3292 ± 0.005.

For `CCCCCC[N+](CC)(CC)CC.F[B-](F)(F)F` [N,N,N-triethyl-N-hexylammonium tetrafluoroborate] + O=S(=O)(O)C(F)(F)F, the refractive index in series [1] (w1 = 0.1) is listed as 1.3475 ± 0.0052; in series [1] (w1 = 0.2), 1.3572 ± 0.0051; in series [1] (w1 = 0.3) it was 1.3654 ± 0.0051; in series [1] (w1 = 0.4) it was 1.3728 ± 0.0051; in series [1] (w1 = 0.5), 1.3782 ± 0.0051.

As to `CCCCCC[N+](CC)(CC)CC.F[P-](F)(F)(F)(F)F` [N,N,N-triethyl-N-hexylammonium hexafluorophosphate] + O=S(=O)(O)C(F)(F)F, the refractive index was determined as 1.3421 ± 0.0052 in series [1] (w1 = 0.1), 1.3549 ± 0.0052 in series [1] (w1 = 0.2), 1.3667 ± 0.0051 in series [1] (w1 = 0.3) and 1.3762 ± 0.0051 in series [1] (w1 = 0.4).

For `CCCCCC[N+](CC)(CC)CC.F[P-](F)(F)(F)(F)F` [N,N,N-triethyl-N-hexylammonium hexafluorophosphate], in series [2] (Crystal), the mass density is on record as 1351 ± 16 kg/m3 and the Normal melting temperature was 161.60 ± 0.5 °C.

Consider `CCCC[N+](CC)(CC)CC.F[B-](F)(F)F` [N,N,N-triethyl-N-butylammonium tetrafluoroborate] + O=S(=O)(O)C(F)(F)F, for which the refractive index was 1.3451 ± 0.0052 in series [1] (w1 = 0.1); 1.3543 ± 0.0051 in series [1] (w1 = 0.2); 1.3636 ± 0.0051 in series [1] (w1 = 0.3); 1.3698 ± 0.0051 in series [1] (w1 = 0.4); 1.3771 ± 0.0051 in series [1] (w1 = 0.5); 1.3857 ± 0.0051 in series [1] (w1 = 0.6).

For the molecule `CC[N+](CC)(CC)CC.F[B-](F)(F)F` [tetraethylammonium tetrafluoroborate] + O=S(=O)(O)C(F)(F)F, the refractive index was 1.3421 ± 0.0051 in series [1] (w1 = 0.1); 1.3512 ± 0.0051 in series [1] (w1 = 0.2); 1.3601 ± 0.0051 in series [1] (w1 = 0.3); 1.3656 ± 0.0051 in series [1] (w1 = 0.4); 1.3732 ± 0.0051 in series [1] (w1 = 0.5).

On to `CC[N+](CC)(CC)CC.[F][Sb-]([F])([F])([F])([F])[F]` [tetraethylammonium hexafluoroantimonate] + O=S(=O)(O)C(F)(F)F, for which the refractive index in series [1] (w1 = 0.1) was 1.3349 ± 0.0051; in series [1] (w1 = 0.2), 1.3408 ± 0.0051; in series [1] (w1 = 0.3) it was 1.3498 ± 0.0051; in series [1] (w1 = 0.4), 1.3571 ± 0.0051; in series [1] (w1 = 0.5), 1.3641 ± 0.0051; in series [1] (w1 = 0.6) it was 1.3678 ± 0.005.

For the molecule `CC[N+](CC)(CC)CC.F[P-](F)(F)(F)(F)F` [tetraethylammonium hexafluorophosphate], in series [2] (Crystal), the mass density was determined as 1440 ± 16 kg/m3 and the Normal melting temperature stood at 77.10 ± 0.5 °C.

On to `O=S(=O)(O)C(F)(F)F` [methanesulfonic acid, trifluoro-] + CC[N+](CC)(CC)CC.[F][Sb-]([F])([F])([F])([F])[F], for which the refractive index in series [1] (w2 = 0) was found to be 1.3292 ± 0.005.

As to `O=S(=O)(O)C(F)(F)F` [methanesulfonic acid, trifluoro-] + CC[N+](CC)(CC)CC.F[P-](F)(F)(F)(F)F, the refractive index in series [1] (w2 = 0) amounted to 1.3292 ± 0.005.

Take `O=S(=O)(O)C(F)(F)F` [methanesulfonic acid, trifluoro-]: the refractive index in series [3] came to 1.3292 ± 0.005.

In the case of `CC[N+](CC)(CC)CC.F[P-](F)(F)(F)(F)F` [tetraethylammonium hexafluorophosphate] + O=S(=O)(O)C(F)(F)F, the refractive index came out at 1.3398 ± 0.0051 in series [1] (w1 = 0.1), 1.3499 ± 0.0051 in series [1] (w1 = 0.2), 1.3602 ± 0.0051 in series [1] (w1 = 0.3) and 1.3691 ± 0.0051 in series [1] (w1 = 0.4).

In the case of `O=S(=O)(O)C(F)(F)F` [methanesulfonic acid, trifluoro-] + CC[N+](CC)(CC)CC.F[B-](F)(F)F, the refractive index in series [1] (w2 = 0) is given as 1.3292 ± 0.005.

`O=S(=O)(O)C(F)(F)F` [methanesulfonic acid, trifluoro-] + CCCC[N+](CC)(CC)CC.F[B-](F)(F)F: the refractive index in series [1] (w2 = 0) stood at 1.3292 ± 0.005.

As for `CCCCCCCC[N+](CC)(CC)CC.F[B-](F)(F)F` [N,N,N-triethyl-N-octylammonium tetrafluoroborate] + O=S(=O)(O)C(F)(F)F, the refractive index in series [1] (w1 = 0.1) is reported as 1.3493 ± 0.0052; in series [1] (w1 = 0.2), 1.3583 ± 0.0051; in series [1] (w1 = 0.3), 1.3672 ± 0.0051; in series [1] (w1 = 0.4), 1.3745 ± 0.0051; in series [1] (w1 = 0.5), 1.3811 ± 0.0051.

In the case of `CC[N+](CC)(CC)CC.[F][Sb-]([F])([F])([F])([F])[F]` [tetraethylammonium hexafluoroantimonate], the mass density in series [2] (Liquid) was found to be 1715 ± 16 kg/m3.

As to `O=S(=O)(O)C(F)(F)F` [methanesulfonic acid, trifluoro-] + CCCC[N+](CC)(CC)CC.F[P-](F)(F)(F)(F)F, the refractive index in series [1] (w2 = 0) is 1.3292 ± 0.005.

As for `CCCCCC[N+](CC)(CC)CC.[F][Sb-]([F])([F])([F])([F])[F]` [N,N,N-triethyl-N-hexylammonium hexafluoroantimonate] + O=S(=O)(O)C(F)(F)F, the refractive index was 1.3381 ± 0.0051 in series [1] (w1 = 0.1); 1.3462 ± 0.0051 in series [1] (w1 = 0.2); 1.3563 ± 0.0051 in series [1] (w1 = 0.3); 1.3628 ± 0.0051 in series [1] (w1 = 0.4); 1.3722 ± 0.0051 in series [1] (w1 = 0.5); 1.3809 ± 0.0051 in series [1] (w1 = 0.6).

As to `CCCCCC[N+](CC)(CC)CC.[F][Sb-]([F])([F])([F])([F])[F]` [N,N,N-triethyl-N-hexylammonium hexafluoroantimonate], in series [2] (Crystal), the mass density is 1488 ± 16 kg/m3 and the Normal melting temperature turned out to be 174.00 ± 0.5 °C.

Regarding `CCCCCCCC[N+](CC)(CC)CC.F[P-](F)(F)(F)(F)F` [N,N,N-triethyl-N-octylammonium hexafluorophosphate] + O=S(=O)(O)C(F)(F)F, the refractive index came out at 1.3427 ± 0.0052 in series [1] (w1 = 0.1); 1.3562 ± 0.0052 in series [1] (w1 = 0.2); 1.3681 ± 0.0051 in series [1] (w1 = 0.3); 1.3781 ± 0.0051 in series [1] (w1 = 0.4); 1.3875 ± 0.0051 in series [1] (w1 = 0.5).

As to `CCCCCCCC[N+](CC)(CC)CC.F[P-](F)(F)(F)(F)F` [N,N,N-triethyl-N-octylammonium hexafluorophosphate], in series [2] (Crystal 2), the mass density is recorded as 1190 ± 16 kg/m3 and the Triple point temperature is reported as 311.65 ± 0.5 K. Further, the Normal melting temperature in series [2] (Crystal 1) turned out to be 88.30 ± 0.5 °C.

With `O=S(=O)(O)C(F)(F)F` [methanesulfonic acid, trifluoro-] + CCCCCCCC[N+](CC)(CC)CC.F[P-](F)(F)(F)(F)F, the refractive index in series [1] (w2 = 0) came out at 1.3292 ± 0.005.

(Values after the NIST ThermoML archive (doi:10.1021/je300993n).)
